# Source: a melting point compilation (Tetko et al.; mined from patent text by program, amines drawn as free bases though some values may be those of a salt)
row,SMILES,melting point
1,CCN(CC)CCNC(=O)c1cc(Cl)c(N)cc1OCC(C)=O,105 to 106 °C
2,CCOC(=O)C(CC=Cc1ccc(Cl)cc1)S(=O)(=O)c1ccc(C)cc1 (centres undefined),87 to 88 °C
3,CCCCCC(C)C(C)c1cc(O)c2c(c1)OC(C)(C)C1=C2CN(CC(=O)O)CC1 (centres undefined),192 to 195 °C
4,COc1ccccc1N1CCN(Cc2c(C3CC3)nn(-c3ccccc3)c2N)CC1,70 to 74 °C
5,COc1ccc(Cl)cc1-c1[nH]c2cccc3c2c1CCNC3=O,160 to 162 °C
6,Cc1ccccc1-c1cccc(F)c1C(=O)NCCCl,78 to 81 °C
7,Nc1ccc([N+](=O)[O-])cc1OCCO,140 to 142 °C
8,COc1ccc(NN=C(Sc2cc(C)cc(C)c2)C(C)=O)cc1,165 to 167 °C
9,Cc1nc2c([N+](=O)[O-])cc3nc(O)c(O)nc3c2nc1C,> 300 °C
10,O=C(NNC(=O)c1ccccc1C(F)(F)F)c1ccccc1F,171 to 173 °C
11,O=c1c2ccccc2nc(-c2sc(Nc3ccccc3)nc2-c2ccccc2)n1-c1ccc(Cl)cc1,218 to 222 °C
12,COc1cc(N)ccc1S(=O)(=O)n1c(=O)n(C2CCCCC2)c2cc(Cl)ccc21,211 °C
13,CCOC(=O)c1sc2cc(OCc3ccccc3)ccc2c1Sc1ccccc1,96 to 97 °C
14,CC(C)CCSc1cc(C(=O)O)cc(N=Nc2cc(C(=O)O)cc(SCCC(C)C)c2C(=O)c2ccccc2)c1C(=O)c1ccccc1,143 to 144 °C
15,COc1ccccc1Cc1ccc(C(=O)C2=C(O)C(=O)N(C(C)C)C2)o1,123 to 124 °C
16,CN1C(=O)CCc2cccc(N3CCN(CCCCOc4ccc5c(n4)NC(=O)NCC5)CC3)c21,80 to 82 °C
17,CCCN(CCC)C1Cc2c(OC)ccc3ncn(c23)C1 (centres undefined),46 to 49 °C
18,O=Cc1cc(Br)c(C=O)cc1Br,184 to 189 °C
19,CCNc1cc(Cl)nc(C#N)c1N,150 °C
20,CSc1cc2c(cc1C(F)(F)F)N(C(=O)Nc1cccc(C(=O)NCCN3CCOCC3)c1)CC2,198 to 200 °C

row,SMILES,melting point
1,CCOC(=O)c1c(-c2cnccn2)ssc1=S,125 °C
2,CN(C)C(=O)NC(=CC(=O)Nc1cc(F)c(C#N)cc1F)C(F)(F)F,138 °C
3,CC(=O)OC1(Cc2ccccn2)C(=O)N(N2CCOCC2)c2ccccc21 (centres undefined),107 to 110 °C
4,COc1ccccc1SCCCCCCCCCC(=O)O,65 to 66 °C
5,COC(=O)c1cc(C(C)C)c(OS(=O)(=O)NC(=O)Cc2c(C(C)C)cc(C(C)C)cc2C(C)C)c(C(C)C)c1,144 to 146 °C
6,CCN1c2ncccc2C(N2CCCC2)=Nc2c(C)cc(C)nc21,138 to 140 °C
7,CC(=O)Nc1c(C(=O)c2cccc(Cl)c2)[nH]c2cc(Cl)ccc12,152 to 154 °C
8,CC(C)(C)c1cc2c(c(C(=O)Nc3ccc(S(=O)(=O)C(F)(F)F)cc3Cl)c1O)CCO2,201 to 202 °C
9,CC1CC(=O)NN=C1c1ccc2c(c1)CCN2 (centres undefined),187 to 189 °C
10,CCCCc1ncc(CC(Cc2ccccc2)C(=O)O)n1Cc1ccc(C(=O)O)cc1 (centres undefined),120 to 124 °C
11,OCCn1nccc1-c1ccc(Oc2ccc(F)cc2)cc1,71 to 72 °C
12,COc1cccc(NC(=O)CN2C(=O)c3ccccc3C2=O)c1,171 °C
13,FC(F)(F)c1ccc(C2=NNCC2c2ccccc2)cc1 (centres undefined),98 to 112 °C
14,Clc1ccc(C(=C2SCCCS2)C2CC2)cc1,91 to 95 °C
15,O=C(c1ccc2nc(C3CC3)n(Cc3ccccc3Cl)c2c1)C1CNCCO1 (centres undefined),193 to 195 °C
16,O=[N+]([O-])c1cc(Cl)c(Oc2ccccc2)cc1NCc1cccc(C(F)(F)F)c1,140 to 142 °C
17,Cc1nnc2n1-c1ccc(Br)cc1C(c1ccccc1)=NC2,268 to 270 °C
18,OC1CCN(c2ccccc2)C12CCNCC2 (racemic),141 to 144 °C
19,CC(=O)OC1CSC(Oc2ccc3c(c2)nnn3C)C(OC(C)=O)C1OC(C)=O (centres undefined),80 °C
20,COCCOc1cc2ncnc(NC3=CC(=O)C4(Cc5ccccc5)OC4C3=O)c2cc1OC (centres undefined),104 to 108 °C

row,SMILES,melting point
1,CCCOc1nc(NC(C)=O)nc2ccc(Cl)nc12,191 °C
2,CCn1c(COC(N)=O)nc(C2CC2)c1Sc1cc(C#N)cc(C#N)c1,170 to 172 °C
3,NCCOc1cc(F)cc2c1OCCC2,68 to 70 °C
4,Cc1cc(N2CN=C(C(F)(F)F)O2)cc(C)c1OCCCc1ccc(C(C)(F)F)nn1,54.5 °C
5,COc1cc(/C=C/C=C/CO)ccc1OCc1nc(-c2ccccc2)oc1C,149 to 151 °C
6,COc1ccc(-c2nc(Sc3ccc(C(F)(F)F)cc3[N+](=O)[O-])[nH]c2-c2ccc(OC)cc2)cc1,264 to 266 °C
7,C#CCNC(=O)Oc1cccc2c1OC(C)(C)O2,107 to 109 °C
8,Cc1c(CCNC(=O)OC(C)(C)C)c2cc(S(=O)(=O)c3cc(F)cc(F)c3)ccc2n1C,182 to 186 °C
9,Cc1oc(-c2ccccc2)nc1Cc1cc2cc(CC3OC(=O)NC3=O)ccc2o1 (centres undefined),190 to 191 °C
10,O=C(O)C1=C(c2ccccc2)c2ccccc2CS1,155 to 156 °C
11,CCOC(=O)NCC#N,49 °C
12,C=CCCCCCCCCCN1C(=O)c2ccccc2C1=O,25 to 30 °C
13,N#Cc1cc(N2CCC(N3CCOCC3)CC2)ccc1N,178 to 180 °C
14,NC(=O)c1nnn(Cc2ccc(C(=O)c3ccc(Cl)cc3)cc2)c1N,229 to 231 °C
15,O=C(C(Cl)c1ccccc1)N1CCCC1 (centres undefined),88.5 °C
16,O=C1NC(=O)C2(c3cc(Oc4ccc([N+](=O)[O-])cc4)c(Cl)cc3F)CCCCC12 (centres undefined),126 °C
17,COc1ccc(Oc2ccc(OCc3ccccc3)cc2[N+](=O)[O-])cc1,120 °C
18,CC(=O)Oc1ccc(C(=O)Oc2ccc(OC(=O)c3ccc(OC(C)=O)cc3)cc2)cc1,185 to 186 °C

# The next lines start with the values.
row,melting point,SMILES
1,122 to 123 °C,Cc1ccc(-c2ncc(Cl)cc2-c2ccc(S(C)=O)cc2)cn1 (centres undefined)
2,168 to 170 °C,Cc1[nH]cnc1CSCCN=CNC#N
3,186 to 187 °C,CC(C)COc1ccccc1-c1ncc(C#N)c(=O)[nH]1
4,101 to 102 °C,OC1Cn2cccc2Sc2ccccc21 (centres undefined)
5,75 to 80 °C,COC(=O)C1CC(C#N)(c2ccccc2)CCC1=O (centres undefined)
6,154 to 157 °C,CCc1ccc(Nc2c(-c3nnc(NCCNC)o3)ccc(F)c2F)c(F)c1
7,75 to 77 °C,CC(C)(C)OC(=O)CN1C(=O)[C@@H](NC(=O)OC(C)(C)C)CC(=O)c2ccccc21
8,165 °C,CC1(Cc2ccccc2)COc2cc(C(=O)O)ccc21 (centres undefined)
9,139 to 141 °C,CC(C)(C(C#N)=NO)S(C)(=O)=O
10,105 °C,Cc1cccc(C2(Cn3cncn3)OCCO2)c1
11,199 to 200 °C,CCc1nc2c(N)nc3ccccc3c2n1CCC1(O)CC1
12,175 to 177 °C,CCOC(=O)c1nc[nH]c1C(=O)OCC
13,208 °C,N=C(N)Nc1ccc(Cl)c(Cl)c1
14,118 °C,Cn1ncc(=O)[nH]c1=O
15,87 to 88 °C,CC(CC(=O)O)c1ccc(-c2ccccc2F)cc1 (centres undefined)
16,143 to 145 °C,CC(C)c1[nH][nH]c(=O)c1Cc1ccc2ccccc2c1
17,149 to 150 °C,COC(=O)C(Cl)=NNc1ccc(Cl)cc1
18,196 to 198 °C,O=c1c(=NO)c2ccccc2oc2cc(F)ccc12
19,79.2 °C,CCc1cccc(-c2nc(C3CCCCC3)n(C)n2)n1
20,112 to 114 °C,O=C(Nc1ccc(Oc2ccnc(NC3CCC3)n2)c2ccccc12)c1cc(F)cc(N2CCCCC2)c1
21,201 to 205 °C,CCCCCCCCCCCC(=O)Nc1ccc(O)c(C(=O)O)c1
22,83 to 84 °C,O=C(O)CCCCCCCCCCn1c(-c2ccccc2)c(-c2ccccc2)n(-c2ccccc2)c1=O
23,108 °C,COc1ccc([C@@H]2Sc3cc(Cl)ccc3N(CCN(C)C(=O)OCc3ccccc3)C(=O)[C@@H]2O)cc1

row,melting point,SMILES
1,182 to 184 °C,COc1nc2cc(Cl)c(Cl)c(N)c2nc1OC
2,154 to 155 °C,COC(=O)c1cc2ccnc(NCc3ccccc3)c2[nH]1
3,188 to 191 °C,CN(Cc1ccc(C(=O)O)cc1)c1ccc(Cl)cc1
4,89 to 90 °C,CC(C)(C)OC(=O)N1CCN(Cc2ccccc2)C(=O)C1
5,95 to 96 °C,O=C(O)CNC(=O)CSCCCCc1ccc2c(c1)OCO2
6,178 to 180 °C,NC(=O)c1cccc(-c2ccc(Oc3ccccc3)cc2)n1
7,120 °C,COC(=O)C(C)(C)OCc1cc2nc(Cl)ccc2n1S(=O)(=O)c1ccc(C(C)C)cc1
8,79 °C,CCC(=O)c1cc(Cl)c(C)cc1OC
9,155 to 157 °C,Cc1nc2c(OCc3cccs3)cccn2c1CC#N
10,159 to 160 °C,CC(C)c1nc(CCOC(=O)N[C@H](C(=O)N[C@@H](Cc2ccccc2)[C@@H](O)C[C@H](Cc2ccccc2)NC(=O)OCc2cncs2)C(C)C)cs1
11,256 to 258 °C,O=C(NC1CNCCn2c1nc(-c1ccncn1)cc2=O)c1ccccn1 (racemic)
12,211 to 214 °C,COc1ccc(COc2ccc(/C=C/c3cc(/C=C/c4ccc5cc[nH]c5c4)n[nH]3)c(OC)c2)cc1
13,108 to 109 °C,Cc1nc(-c2ccc(Cl)cc2)nn1CCC=O
14,90 to 92 °C,COc1ccc2c(c1)CCC1=C2CCC(O)C1 (centres undefined)
15,164 to 166 °C,Cn1ncnc1COc1cc(N)c2cnn(-c3ccccc3)c2n1
16,237 °C,CCCC1=C(C#N)C(c2ccccc2Cl)c2c(n[nH]c2CCC)N1 (centres undefined)
17,194 to 197 °C,O=C1CCc2cccc3c2N1C(=O)C3
18,165 to 168 °C,COc1ccc(C)cc1NC(=O)Nc1ccc(N2CCN(C(=O)Nc3ncccc3C(=O)O)CC2)cc1
19,290 to 292 °C,Cc1cc(C)c(-n2ccc3c(N)n[nH]c(=O)c32)c(C)c1
20,140 to 141 °C,CC=CCOc1cc(OC)cc(C(=O)OC)c1
21,166 to 167 °C,Cn1ccc2c1CC(c1ccccc1)CC2=O (centres undefined)
22,191 to 192 °C,CCCCc1nc2ccccc2n1Cc1ccc(C(=O)O)c(C)c1
23,165 °C,NS(=O)(=O)c1cccc(-c2cccc(-c3nc(-c4ccc(Cl)cc4)cc(C(F)(F)F)n3)c2)c1
